Measured values as given in US8911723B2, “Hybrid hydrogel scaffold compositions and methods of use” (Escape Therapeutics, Inc., priority 2010, dated 2014).
Entries after “also recorded” stand apart in the source; their conditions may differ.

Legend:
[1] = Cell viability of hydrogel-encapsulated hAMSCs (trypan blue); type: cell-based; conditions: human, hAMSCs encapsulated in EFK8 hydrogel, through 14 days of culture, read-out: hAMSC viability
Method: hAMSCs were encapsulated in PO, EFK8, or EFK8-PO and cultured in a 37° C. humidified 5% CO2 incubator for 3 hrs, 1, 3, 6, 10, or 14 days. Fifty μL of cells was then mixed with an equal volume of 1% trypan blue and observed under light microscopy. Trypsin-EDTA (0.25%) was used to separate cells when cell aggregation occurred. Viability was calculated as the percentage of living cells over total cells.

hAMSCs [2] = test: WST-1 Cell Proliferation assay of encapsulated hAMSCs; type: cell-based, human; conditions: days 1-4 of culture
[3] = Rheology, temperature sweep of hydrogels (AR-G2 rheometer); type: physicochemical; conditions: for lost modulus G″ / storage modulus G′: 1% w/v in PBS
Method: The viscoelastic properties of 3 hydrogels were investigated with a, AR-G2 rheometer (TA Instruments, New Castle, Del.). The parameters of temperature sweep were set as follows: range 4-40° C., change rate 5° C./min, strain 2%; frequency 1 Hz. Three parameters were recorded: 1) storage modulus G′ estimates the elastic component of mechanical strength, 2) lost modulus G″ estimates the viscous component of mechanical strength, and 3) phase difference Delta indicates the elastic or viscous property of a material. Zero degree of Delta implies a purely elastic material, while a purely viscous material has a Delta of 90 degrees. This same method can be used to analyze the viscoelastic properties of any of the scaffolds/hydrogels of the invention.
To determine the mechanical properties of PO, EFK8, and EFK8-PO hydrogels, we performed rheological analyses. The viscoelastic behaviors of EFK8 (1% w/v in PBS), PO (20% w/v in PBS), and EFK8-PO (20% w/v PO plus 1% w/v EFK8, both in PBS) hydrogels are illustrated in FIG. 1. At 25° C., G′ of EFK8 hydrogel was ˜10.5 Pa and G″ was ˜6.2 Pa. […] Phase difference Delta increased from 30 degrees to 70 degrees (FIG. 1A). […] EFK8 hydrogel was very weak and less viscous both at room temperature and 37° C. […] FIG. 1C illustrates the viscoelastic behavior of EFK8-PO.

bleeding hand = test: Hemostatic agent test on a bleeding hand; conditions: in vivo
Method: In one embodiment, the scaffolds can be used as a hemostatic agent. […] When a bleeding hand was treated with EFK8-PO, bleeding stopped at one minute. When a bleeding hand was treated with PO alone, the hand was still bleeding at 10 minutes.

hAMSCs [4] = test: Cell surface marker expression of encapsulated hAMSCs (RT-PCR); type: cell-based, human; conditions: after 2 weeks of culture, data not shown
Description: hAMSCs were confirmed to meet the minimal criteria for defining multipotent MSCs according to previously described methods [Dominici et al., “Minimal criteria for defining multipotent mesenchymal stromal cells. The International Society for Cellular Therapy position statement,” Cytotherapy 2006; 8:315-7.]. First, hAMSCs were plastic-adherent when maintained in standard culture conditions using tissue culture flasks. […] Third, hAMSCs were able to differentiate to osteoblasts, adipocytes and chondroblasts under standard in vitro differentiating conditions.

hAMSCs [5] = test: In vitro osteogenic differentiation of encapsulated hAMSCs (ALP, alizarin red S); type: cell-based, human; conditions: osteogenic differentiation medium, 14 days
Description: (§1) hAMSCs were encapsulated in PO, EFK8, and EFK8-PO as above. Adipogenic or osteogenic differentiation was induced by culturing cells in adipogenic or osteogenic differentiation medium (AD-medium or OS-medium, respectively, Cell Applications, San Diego, Calif.) for 7 days or 14 days, respectively, according to our previously published method, which is hereby incorporated by reference, Zhao L et al., “TGF-beta 1 Induces Osteogenic Differentiation of Murine Bone Marrow Stromal Cells,” Tissue Eng Part A 2009, In press. Fresh induction media was added to every other day.
Alkaline Phosphatase (ALP) staining was used to detect mineralization in hAMSCs during osteogenic differentiation. After culturing encapsulated hAMSCs for 14 days in the various hydrogels, the medium was aspirated and cells were stained with StemTag ALP (Cell Biolabs, San Diego, Calif.) according to the manufacturer's protocol. Briefly, after washing twice with PBS, cells were exposed to fixing solution for 2 min, then washed again with PBS and incubated with StemTAG ALP staining solution for 30 min in the dark. ALP staining solution was aspirated and cells were then washed with PBS and observed under light microscopy. […]

hAMSCs in nude mice = test: In vivo adipogenic differentiation of hydrogel-encapsulated hAMSCs injected subcutaneously; conditions: subcutaneous dorsal neck, 30 days post-injection
Method: All mouse experiments were conducted in accordance with the Guide for the Care and Use of Laboratory Animals and were approved by each Institution's respective Administrative Panel on Laboratory Animal Care. hAMSCs were encapsulated in PO, EFK8, and EFK8-PO hydrogels at a final concentration of 1×10^6 cells/ml and mixed gently in the hydrogels. PO and EFK8-PO were kept on ice to prevent premature gelation during the seeding process. Two hundred μL of each encapsulation was injected subcutaneously using 1 ml syringes into the dorsal neck area of female nude mice (8 weeks of age). Two hundred μL of PBS was used as a control. The nude mice were then allowed to recover, and then returned to their cages. After 30 days, mice were sacrificed using CO2 euthanasia and dorsal neck skin harvested immediately. […]
Specimens were frozen sectioned using either vertical or horizontal slices 5-10 μm thick, then post-fixed in 100% cold acetone at −20° C., blocked for 1 hr with goat serum and then incubated with the appropriate mouse anti-human nuclei monoclonal primary antibody (Chemicon, Billerica, Mass.) at the desired dilution (1:50 to 1:250) overnight at 4° C. Signal was detected using the Vectastain ABC Elite Mouse/Rabbit/Goat IgG detection kit (Vector Laboratories, Burlingame, Calif.) following the manufacturer's protocol. […]

hAMSCs [6] = test: hAMSC morphology and distribution (aggregation) after encapsulation in hydrogels; type: cell-based, human; conditions: hAMSCs encapsulated in hydrogel
Method: Cells were encapsulated in the appropriate hydrogel by gently mixing hAMSCs with PO, EFK8, or EFK8-PO at a final concentration of 1×10^6 cells/ml. When seeding hAMSCs in PO or EFK8-PO, hydrogels were kept on ice to prevent premature gelation. Fifty μL of the aliquot of hydrogel/cell mixture was quickly transferred into a 96-well microplate. Encapsulated hAMSCs were then incubated at 37° C. for 5 min to induce gel formation. One hundred μL of DMEM medium was then added into each well. Fresh medium was changed 3 times within the first 30 min in order to neutralize the acidic pH of the hydrogels, and then changed every other day during culture. After various treatments described below and at the appropriate time points, a 1000 μL pipette tip was cut at its distal end to facilitate our ability to gently draw up 50 μL of encapsulated hAMSCs from the top of the well. Cells were then gently placed onto a slide to allow for examination under light field microscopy. This process was repeated 3 times per well, allowing for assessment of a total of 3 different depth layers (top, middle, and bottom) of the encapsulated cell mixture. This method of encapsulation can generally be used for encapsulating most cell-types in the scaffolds described herein. […]

hAMSCs [7] = test: In vitro adipogenic differentiation of encapsulated hAMSCs (Oil Red O); type: cell-based, human
Description: as §1
Red oil staining was used to confirm hAMSC adipogenic differentiation. Cells were washed with PBS and fixed with 10% formalin for 20 min. Cells were then washed twice with PBS, once with 60% isopropyl alcohol, stained with Oil Red O solution (Sigma-Aldrich) for 15 min, washed with PBS once more, and then observed by light field microscopy, Hata K et al., “A CCAAT/enhancer binding protein beta isoform, liver-enriched inhibitory protein, regulates commitment of osteoblasts and adipocytes,” Mol Cell Biol, 2005, 25(5):1971-1979, which is hereby incorporated by reference.

lost modulus G″ ([3]; 25° C.): ~6.2 Pa | storage modulus G′ ([3]; 25° C.): ~10.5 Pa | lost modulus G″ ([3]; 37° C.): 5 Pa | storage modulus G′ ([3]; 37° C.): 2 Pa | phase difference Delta ([3]; end of the increase (37° C.)): 70 degrees | phase difference Delta ([3]; start of the increase (25° C.)): 30 degrees
Substance: Ac-KFEFKFEF-NH2 [EFK8, AcN-KFEFKFEF-CONH2]
viability [1]: > 80% | hAMSC proliferation (WST-1) (hAMSCs [2]): significantly increased hAMSC proliferation rates; also recorded: promote cell proliferation | effectiveness as a hemostatic agent (in words) (bleeding hand): also effective as a hemostatic agent | cell surface marker expression pattern (hAMSCs [4]): expressed CD73, CD90, and CD105 but were negative for CD14, CD19, CD34, CD45, and HLA class II | Osteogenic AP (% +) Day 14 (hAMSCs [5]): 88±9% | Osteogenic Alizarin Red (% +) Day 14 (hAMSCs [5]): 54±7% | new fat (adipose) tissue / hAMSC engraftment and adipogenic differentiation (hAMSCs in nude mice): did not observe new adipose tissue | Aggregation Day 3 (hAMSCs [6]; 3 days of culture): <3-5% | Aggregation Day 10 (hAMSCs [6]; 10 days of culture): ~10% | Adipogenic Oil-Red-O (% +) Day 4 (hAMSCs [7]; adipogenic differentiation medium, 4 days): 42±6% | Adipogenic Oil-Red-O (% +) Day 7 (hAMSCs [7]; adipogenic differentiation medium, 7 days): 68±8% | differentiation of encapsulated hAMSCs on induction medium (in words) (hAMSCs [7]; adipogenic or osteogenic induction medium): differentiated into adipocytes or osteoblasts
